Laboratory results from patent publication US11370897B2, “Curable composition comprising UV stabilizer” (Momentive Performance Materials Inc., priority 2019, dated 2022).
Where two headings read alike, the source gives them in different places.

Assay: Solubility tests of resorcinol products in alcoholic solvents
Format: physicochemical
Details: organic solvent or mixture, thermodynamic from solid, 20° C., Table 11, by product ratio DBMR/BTMR/DTMR
Procedure: To determine the solubility of resorcinol products, the following procedure was used:
0.50 g of pre-dried product (45 min @75° C. in oven) was combined with 5.00 ml of solvent (4.03 g of 2-butanol or 4.60 g of 1-methoxy-2-propanol). The mixture was handled in an ultrasonic bath for 1 min and stored afterwards under constant climate (20° C.) for 24 h.
The overlying solution was transfused carefully with a pipette. The solid content of this solution was measured thermogravimetrically with a halogen moisture analyzer (Mettler Toledo). This test procedure was repeated three times.

[1] = 1-methoxy-2-propanol, read-out: Solubility in 1-Methoxy-2-propanol
[2] = 2-butanol, read-out: Solubility in 2-butanol

| Compound | solubility at 24 h [1] [µg/mL] | solubility at 24 h [2] [µg/mL] |
| --- | --- | --- |
| Cc1c(O)c(C(=O)c2ccccc2)cc(C(=O)c2ccccc2)c1O [DBMR, dibenzoylacyl-2-methyl resorcinol] | 4000 | < 1000 |
| Cc1cccc(C(=O)c2cc(C(=O)c3cccc(C)c3)c(O)c(C)c2O)c1 [DTMR, ditoluoylacyl-2-methyl resorcinol] | 15000 | 1000 |
